Here are results for 21 molecules from patent publication US20070117839A1, “Two cyclic cinnamide compound” (Eisai R&D Management Co., Ltd., priority 2005, published 2007).

SMILES strings stand for the structures. pIC50: −log10 of the molar value.

The term pIC50 denotes −log10 of the IC50, conventionally taken in molar units.

The test system of the assay is Aβ 42 Production. Kind of assay: Quantification of Aβ peptide in culture of neurons from rat fetus brain (Aβ ELISA). It counts as cell-based. As to conditions: Neuron, 72 h; rat primary neuronal culture (embryonic day 18 Wistar rat cerebral cortex), cultured three days after addition of the compound, Aβx-42 ELISA of the medium; read-out: Activity for reducing Aβ 42 Production IC50. Here is the method: Quantification of Aβ Peptide in Culture of Neurons from Rat Fetus Brain
(1) Rat Primary Neuronal Culture
Primary neuronal cultures were prepared from the cerebral cortex of embryonic day 18 Wistar rats (Charles River Japan, Yokohama, Japan). Specifically, the embryos were aseptically removed from pregnant rats under ether anesthesia. The brain was isolated from the embryo and immersed in an ice-cold L-15 medium (Invitrogen Corp. Cat #11415-064, Carlsbad, Calif., USA, or SIGMA L1518, for example). The cerebral cortex was collected from the isolated brain under a stereoscopic microscope. The cerebral cortex fragments collected were enzymatically treated in an enzyme solution containing 0.25% trypsin (Invitrogen Corp. Cat #15050-065, Carlsbad, Calif., USA) and 0.01% DNase (Sigma D5025, St. Louis, Mo., USA) at 37° C. for 30 minutes to disperse the cells. Here, the enzymatic reaction was stopped by adding inactivated horse serum to the solution. The enzymatically treated solution was centrifuged at 1,500 rpm for five minutes to remove the supernatant. 5 to 10 mL of a medium was added to the resulting cell mass. Neurobasal medium (Invitrogen Corp. Cat #21103-049, Carlsbad, Calif., USA) supplemented with 2% B27 supplement (Invitrogen Corp. Cat #17504-044, Carlsbad, Calif., USA), 25 μM 2-mercaptoethanol (2-ME, WAKO Cat #139-06861, Osaka, Japan), 0.5 mM L-glutamine (Invitrogen Corp. Cat #25030-081, Carlsbad, Calif., USA), and Antibiotics-Antimycotics (Invitrogen Corp. Cat #15240-062, Carlsbad, Calif., USA) was used as the medium (Neurobasal/B27/2-ME). However, the above Neurobasal medium not supplemented with 2-ME (Neurobasal/B27) was used for the assay. The cells were redispersed by mild pipetting of the cell mass to which the medium was added. The cell dispersion was filtered through a 40-μm nylon mesh (Cell Strainer, Cat #35-2340, Becton Dickinson Labware, Franklin Lakes, N.J., USA) to remove the remaining cell mass, and thus a neuronal cell suspension was obtained. The neuronal cell suspension was diluted with the medium and then plated in a volume of 100 μl/well at an initial cell density of 5×10^5 cells/cm^2 in a 96-well polystyrene culture plate pre-coated with poly-L or D-lysine (Falcon Cat #35-3075, Becton Dickinson Labware, Franklin Lakes, N.J., USA coated with poly-L-lysine using the method shown below, or BIOCOAT™ cell environments Poly-D-lysine cell ware 96-well plate, Cat #35-6461, Becton Dickinson Labware, Franklin Lakes, N.J., USA). Poly-L-lysine coating was carried out as follows. 100 μg/ml of a poly-L-lysine (SIGMA P2636, St. Louis, Mo., USA) solution was aseptically prepared with a 0.15 M borate buffer (pH 8.5). 100 μl/well of the solution was added to the 96-well polystyrene culture plate and incubated at room temperature for one or more hours or at 4° C. overnight or longer. The coated 96-well polystyrene culture plate was washed with sterile water four or more times, and then dried or rinsed with, for example, sterile PBS or medium, and used for cell plating. The plated cells were cultured in the culture plate at 37° C. in 5% CO2-95% air for one day. Then, the total amount of the medium was replaced with a fresh Neurobasal/B27/2-ME medium, and then the cells were cultured for further three days.
The drug was added to the culture plate on Day 4 of culture as follows. The total amount of the medium was removed from the wells, and 180 μl/well of Neurobasal medium not containing 2-ME and containing 2% B-27 (Neurobasal/B27) was added thereto. A solution of the test compound in dimethyl sulfoxide (hereinafter abbreviated as DMSO) was diluted with Neurobasal/B27 at 10-fold of the final concentration. 20 μl/well of the dilution was added to and sufficiently mixed with the medium. The final DMSO concentration was 1% or less. Only DMSO was added to the control group.
The cells were cultured for three days after addition of the compound, and the total amount of the medium was collected. […]
As for `COc1cc(/C=C2\CC[C@H]3CC[C@@H](c4cc(F)c(F)c(F)c4)N3C2=O)ccc1-n1cnc(C)c1` [Example 3, (E)-(3S)-(3,4,5-trifluorophenyl)-6-[3-methoxy-4-(4-methyl-1H-imidazol-1-yl)benzylidene]-(9S)-hexahydroindolizin-5-one], the pIC50 was 7.20.

`COc1cc(/C=C2\CC[C@H]3CC[C@@H](c4ccc(F)c(F)c4)N3C2=O)ccc1-n1cnc(C)c1` [Example 6, (E)-(3S)-(3,4-difluorophenyl)-6-[3-methoxy-4-(4-methyl-1H-imidazol-1-yl)benzylidene]-(9S)-hexahydroindolizin-5-one]: the pIC50 was 6.92.

Regarding `COc1cc(/C=C2\CC[C@H]3CCC[C@@H](c4ccc(F)cc4)N3C2=O)ccc1-n1cnc(C)c1` [Example 8, (E)-(6S,9aR)-6-(4-fluorophenyl)-3-[3-methoxy-4-(4-methyl-1H-imidazol-1-yl)benzylidene]octahydroquinolizin-4-one], the negative-log IC50 (pIC50) was 7.14.

`COc1cc(/C=C2\CC[C@@H]3C[C@H](O)C[C@@H](c4ccc(F)cc4)N3C2=O)ccc1-n1cnc(C)c1` [Example 11, (E)-(6S,8S,9aR)-6-(4-fluorophenyl)-8-hydroxy-3-[3-methoxy-4-(4-methyl-1H-imidazol-1-yl)benzylidene]octahydroquinolizin-4-one]: the pIC50 is 7.01.

As to `COc1cc(/C=C2\CC[C@@H]3CCC[C@@H](c4cc(F)c(F)c(F)c4)N3C2=O)ccc1-n1cnc(C)c1` [Example 13, (E)-(6S,9aS)-6-(3,4,5-trifluorophenyl)-3-[3-methoxy-4-(4-methyl-1H-imidazol-1-yl)benzylidene]octahydroquinolizin-4-one], the pIC50 is 7.04.

On to `COc1cc(/C=C2\CC[C@@H]3C[C@H](O)C[C@@H](c4cc(F)c(F)c(F)c4)N3C2=O)ccc1-n1cnc(C)c1` [Example 15, (E)-(6S,8S,9aR)-6-(3,4,5-trifluorophenyl)-8-hydroxy-3-[3-methoxy-4-(4-methyl-1H-imidazol-1-yl)benzylidene]octahydroquinolizin-4-one], for which the pIC50 is 7.10.

Turning to `COc1cc(/C=C2\CC[C@@H]3C[C@@H](O)C[C@@H](c4cc(F)c(F)c(F)c4)N3C2=O)ccc1-n1cnc(C)c1` [Example 17, (E)-(6S,8R,9aR)-6-(3,4,5-trifluorophenyl)-8-hydroxy-3-[3-methoxy-4-(4-methyl-1H-imidazol-1-yl)benzylidene]octahydroquinolizin-4-one], the pIC50 was 7.17.

Regarding `COc1cc(/C=C2\CC[C@@H]3CCC[C@@H](c4ccc(F)cc4)N3C2=O)ccc1-n1cnc(C)c1` [Example 19, (E)-(6S,9aS)-6-(4-fluorophenyl)-3-[3-methoxy-4-(4-methyl-1H-imidazol-1-yl)benzylidene]octahydroquinolizin-4-one], the pIC50 was 6.89.

For `COc1ccc([C@@H]2CCC[C@@H]3CC/C(=C\c4ccc(-n5cnc(C)c5)c(OC)c4)C(=O)N32)cc1` [Example 30, (E)-(6S,9aR)-3-[3-methoxy-4-(4-methyl-1H-imidazol-1-yl)benzylidene]-6-(4-methoxyphenyl)octahydroquinolizin-4-one], the pIC50 is 6.96.

On to `COc1cc(/C=C2\CC[C@H]3CCC[C@@H](c4cccc(F)c4)N3C2=O)ccc1-n1cnc(C)c1` [Example 41, (E)-(6S,9aR)-6-(3-fluorophenyl)-3-[3-methoxy-4-(4-methyl-1H-imidazol-1-yl)benzylidene]octahydroquinolizin-4-one], for which the pIC50 was 7.33.

For the molecule `COc1cc(/C=C2\CC[C@H]3CCC[C@@H](c4ccccc4F)N3C2=O)ccc1-n1cnc(C)c1` [Example 43, (E)-(6S,9aR)-6-(2-fluorophenyl)-3-[3-methoxy-4-(4-methyl-1H-imidazol-1-yl)benzylidene]octahydroquinolizin-4-one], the pIC50 is 7.18.

As to `COc1cc(/C=C2\CC[C@@H]3CCC[C@H](c4ccccc4F)N3C2=O)ccc1-n1cnc(C)c1` [Example 44, (E)-(6R,9aS)-6-(2-fluorophenyl)-3-[3-methoxy-4-(4-methyl-1H-imidazol-1-yl)benzylidene]octahydroquinolizin-4-one], the negative logarithm of the IC50 (pIC50) was 7.03.

In the case of `COc1cc(/C=C2\CC[C@@H]3C[C@@](C)(O)C[C@@H](c4ccc(F)cc4)N3C2=O)ccc1-n1cnc(C)c1` [Example 45, (E)-(6S,8R,9aR)-6-(4-fluorophenyl)-8-hydroxy-3-[3-methoxy-4-(4-methyl-1H-imidazol-1-yl)benzylidene]-8-methyloctahydroquinolizin-4-one], the pIC50 was 6.80.

For `COc1cc(/C=C2\CC[C@@H]3CC(C)=C[C@@H](c4ccc(F)cc4)N3C2=O)ccc1-n1cnc(C)c1` [Example 49, (E)-(6S,9aR)-6-(4-fluorophenyl)-3-[3-methoxy-4-(4-methyl-1H-imidazol-1-yl)benzylidene]-8-methyl-1,2,3,6,9,9a-hexahydroquinolizin-4-one], the pIC50 is 6.68.

As to `COc1cc(/C=C2\C[C@H]3CC[C@@H](c4ccc(F)c(F)c4)N3C2=O)ccc1-n1cnc(C)c1` [Example 54, (E)-(5S,7aR)-5-(3,4-difluorophenyl)-2-[3-methoxy-4-(4-methyl-1H-imidazol-1-yl)benzylidene]hexahydropyrrolidin-3-one], the pIC50 was 6.60.

For the molecule `COc1cc(/C=C2\CC[C@H]3CC[C@@H](c4ccc(Cl)cc4)N3C2=O)ccc1-n1cnc(C)c1` [Example 56, (E)-(3S,8aS)-3-(4-chlorophenyl)-6-[3-methoxy-4-(4-methyl-1H-imidazol-1-yl)benzylidene]hexahydroindolizin-5-one], the pIC50 is 7.26.

Take `COc1cc(/C=C2\CC[C@H]3CC[C@@H](c4cc(F)c(F)cc4F)N3C2=O)ccc1-n1cnc(C)c1` [Example 57, (E)-(3S,8aS)-3-(2,4,5-trifluorophenyl)-6-[3-methoxy-4-(4-methyl-1H-imidazol-1-yl)benzylidene]hexahydroindolizin-5-one]: the pIC50 was 7.21.

In the case of `COc1cc(/C=C2\CC[C@H]3CC[C@@H](c4ccc(F)c(F)c4F)N3C2=O)ccc1-n1cnc(C)c1` [Example 58, (E)-(3S,8aS)-3-(2,3,4-trifluorophenyl)-6-[3-methoxy-4-(4-methyl-1H-imidazol-1-yl)benzylidene]hexahydroindolizin-5-one], the pIC50 was 7.14.

Regarding `COc1cc(/C=C2\CC[C@H]3CC[C@@H](c4cc(F)cc(F)c4)N3C2=O)ccc1-n1cnc(C)c1` [Example 64, (E)-(3S,8aS)-3-(3,5-difluorophenyl)-6-[3-methoxy-4-(4-methyl-1H-imidazol-1-yl)benzylidene]hexahydroindolizin-5-one], the negative logarithm of the IC50 (pIC50) is 7.17.

As to `COc1cc(/C=C2\CC[C@@H]3CCC[C@@H](c4ccc(F)c(F)c4)N3C2=O)ccc1-n1cnc(C)c1` [Example 65, (E)-(6S,9aS)-6-(3,4-difluorophenyl)-3-[3-methoxy-4-(4-methyl-1H-imidazol-1-yl)benzylidene]octahydroquinolizin-4-one], the pIC50 is 7.17.

Consider `COc1cc(/C=C2\CC[C@H]3COC[C@@H](c4cc(F)c(F)c(F)c4)N3C2=O)ccc1-n1cnc(C)c1` [Example 83, (E)-(4R,9aS)-7-[3-methoxy-4-(4-methyl-1H-imidazol-1-yl)benzylidene]-4-(3,4,5-trifluorophenyl)hexahydropyrido[2,1-c][1,4]oxazin-6-one], for which the negative-log IC50 (pIC50) was 7.43.
